What is called IC50 is the concentration at which inhibition is half-maximal. A low value points to greater potency in that assay.

The record followed here is patent US20230026696A1, “TRPV4 RECEPTOR LIGANDS” (UNIVERSITY OF UTAH RESEARCH FOUNDATION, priority 2019, published 2023).

SMILES strings stand for the structures. Where a name gives a salt, the structure may show the parent alone.

For the test, the target named is T1, human TRPV4 (Homo sapiens, UniProt Q9HBA0).
T1 construct: expressed in transfected cells
T1 sequence (Q9HBA0 whole entry): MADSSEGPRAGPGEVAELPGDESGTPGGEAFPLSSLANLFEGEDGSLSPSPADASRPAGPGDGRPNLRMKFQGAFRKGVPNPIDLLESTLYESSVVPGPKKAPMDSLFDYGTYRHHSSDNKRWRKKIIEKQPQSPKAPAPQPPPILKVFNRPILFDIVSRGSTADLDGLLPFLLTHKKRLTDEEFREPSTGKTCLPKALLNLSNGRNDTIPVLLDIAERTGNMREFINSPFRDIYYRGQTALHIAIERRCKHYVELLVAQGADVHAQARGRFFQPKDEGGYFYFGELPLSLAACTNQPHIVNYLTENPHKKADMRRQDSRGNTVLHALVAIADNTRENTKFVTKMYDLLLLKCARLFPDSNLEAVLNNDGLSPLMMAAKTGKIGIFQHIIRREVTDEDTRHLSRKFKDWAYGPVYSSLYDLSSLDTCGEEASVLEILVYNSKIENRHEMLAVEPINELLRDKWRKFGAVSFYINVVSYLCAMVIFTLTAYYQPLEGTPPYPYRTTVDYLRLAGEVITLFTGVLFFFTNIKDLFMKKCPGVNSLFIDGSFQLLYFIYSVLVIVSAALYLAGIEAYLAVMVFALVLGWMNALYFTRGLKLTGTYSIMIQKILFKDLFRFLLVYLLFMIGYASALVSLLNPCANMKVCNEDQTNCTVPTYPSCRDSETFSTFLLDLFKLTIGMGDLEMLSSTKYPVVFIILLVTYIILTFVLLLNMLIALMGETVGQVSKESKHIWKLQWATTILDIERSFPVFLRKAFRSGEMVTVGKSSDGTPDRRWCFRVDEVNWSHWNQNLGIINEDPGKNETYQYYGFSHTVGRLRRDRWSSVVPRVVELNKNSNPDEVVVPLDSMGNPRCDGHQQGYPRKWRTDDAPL
The test can be described thus: Fluorometric cell-based Ca2+ flux assay, HEK-293 cells stably overexpressing human TRPV4. Conditions: HEK-293 stably overexpressing human TRPV4; agonist GSK1016790A 30 nM. Summed up: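 HEK-293 cells stably overexpressing human TRPV4, Fluo 4-loaded, pre-incubated 30 min at 37° C with compound, then stimulated with 30 nM GSK1016790A (final). Max ΔF/s over 1 min, media-corrected, expressed relative to no-antagonist control; IC50 from ≥8 concentrations, ≥3 replicates.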
`Cc1cc(C#N)ccc1S(=O)(=O)N1CC(CO)(COc2ccc(C#N)c(F)c2)C1` [Compound 79, 4-((1-((4-Cyano-2-methylphenyl)sulfonyl)-3-(hydroxymethyl)azetidin-3-yl)methoxy)-2-fluorobenzonitrile]: the IC50 is > 1.3 µM.
`CC1(COc2ccc(C#N)cc2)CN(S(=O)(=O)c2ccc(Cl)cc2Cl)C1` [Compound 1, 4-((1-((2,4-Dichlorophenyl)sulfonyl)-3-methylazetidin-3-yl)methoxy)benzonitrile] gave an IC50 of 0.51 µM.
In turn, `N#Cc1ccc(OCC2(CN[C@H]3C[C@@H](O)C3)CN(S(=O)(=O)c3ccc(Cl)cc3Cl)C2)cc1F` [Compound 38, 4-((1-((2,4-Dichlorophenyl)sulfonyl)-3-((((cis)-3-hydroxycyclobutyl)amino)methyl)azetidin-3-yl)methoxy)-2-fluorobenzonitrile hydrochloride] came in with a 50% inhibitory concentration (IC50) of 0.0018 µM.
The figure for `COc1ccc(S(=O)(=O)N2CC(CO)(COc3ccc(C#N)c(F)c3)C2)c(Br)c1` [Compound 102, 4-((1-((2-Bromo-4-methoxyphenyl)sulfonyl)-3-(hydroxymethyl)azetidin-3-yl)methoxy)-2-fluorobenzonitrile] is 0.231 µM; for `COCCNCC1(COc2ccc(C#N)c(F)c2)CN(S(=O)(=O)c2ccc(Cl)cc2Cl)C1` [Compound 21, 4-((1-((2,4-dichlorophenyl)sulfonyl)-3-(((2-methoxyethyl)amino)methyl)azetidin-3-yl)methoxy)-2-fluorobenzonitrile hydrochloride] it is 0.0187 µM.
For `N#Cc1ccc(OCC2(CNC3CCOCC3)CN(S(=O)(=O)c3ccccc3C#N)C2)cc1F` [Compound 116, 4-((1-((2-Cyanophenyl)sulfonyl)-3-(((tetrahydro-2H-pyran-4-yl)amino)methyl)azetidin-3-yl)methoxy)-2-fluorobenzonitrile], the IC50 was 0.00041 µM.
Compound `COc1cc(C#N)c(F)cc1OCC1(CO)CN(S(=O)(=O)c2ccc(C)cc2C#N)C1` [Compound 110, 4-((1-((2-Cyano-4-methylphenyl)sulfonyl)-3-(hydroxymethyl)azetidin-3-yl)methoxy)-2-fluoro-5-methoxybenzonitrile] gave an IC50 of 0.241 µM.
With `COc1cc(C#N)ccc1OCC1(CO)CN(S(=O)(=O)c2ccc(Cl)cc2Cl)C1` [Compound 98, 4-((1-((2,4-Dichlorophenyl)sulfonyl)-3-(hydroxymethyl)azetidin-3-yl)methoxy)-3-methoxybenzonitrile] the figure was 0.0672 µM; with `N#Cc1ccc(OCC2(CO)CN(S(=O)(=O)c3ccc(OC(F)(F)F)cc3C#N)C2)cc1F` [Compound 107, 4-((1-((2-Cyano-4-trifluoromethoxyphenyl)sulfonyl)-3-(hydroxymethyl)azetidin-3-yl)methoxy)-2-fluorobenzonitrile], 0.08 µM; with `CC(O)CNCC1(COc2ccc(C#N)c(F)c2)CN(S(=O)(=O)c2ccc(Cl)cc2Cl)C1` (stereo not drawn) [Compound 24, 4-((1-((2,4-Dichlorophenyl)sulfonyl)-3-(((2-hydroxypropyl)amino)methyl)azetidin-3-yl)methoxy)-2-fluorobenzonitrile hydrochloride], 0.0009 µM.
With `N#Cc1ccc(OCC2(CO)CN(S(=O)(=O)c3ccc(Cl)cc3C#N)C2)cc1F` [Compound 81, 4-((1-((4-Chloro-2-cyanophenyl)sulfonyl)-3-(hydroxymethyl)azetidin-3-yl)methoxy)-2-fluorobenzonitrile] the figure was 0.005 µM; with `COc1cc(C#N)c(F)cc1OCC1(CO)CN(S(=O)(=O)c2ccc(Cl)cc2Cl)C1` [Compound 108, 4-((1-((2,4-Dichlorophenyl)sulfonyl)-3-(hydroxymethyl)azetidin-3-yl)methoxy)-2-fluoro-5-methoxybenzonitrile], 0.528 µM; with `O=S(=O)(c1ccc(Cl)cc1Cl)N1CC(CO)(COc2ccc(F)c(F)c2)C1` [Compound 87, (1-((2,4-Dichlorophenyl)sulfonyl)-3-((3,4-difluorophenoxy)methyl)azetidin-3-yl)methanol], 1 to 3 µM.
Take `CNC(=O)C1(COc2ccc(C#N)cc2)CN(S(=O)(=O)c2ccc(Cl)cc2Cl)C1` [Compound 4, 3-((4-Cyanophenoxy)methyl)-1-((2,4-dichlorophenyl)sulfonyl)-N-methylazetidine-3-carboxamide]: the IC50 came out at 4.6 µM.
For `N#Cc1ccc(S(=O)(=O)N2CC(CO)(COc3ccc(C#N)c(F)c3)C2)c(Cl)c1` [Compound 60, 4-((1-((2-Chloro-4-cyanophenyl)sulfonyl)-3-(hydroxymethyl)azetidin-3-yl)methoxy)-2-fluorobenzonitrile], the IC50 worked out at 0.054 µM.
The figure for `COC(=O)c1ccc(S(=O)(=O)N2CC(CO)(COc3ccc(C#N)c(F)c3)C2)c(Cl)c1` [Compound 80, Methyl 3-chloro-4-((3-((4-cyano-3-fluorophenoxy)methyl)-3-(hydroxymethyl)azetidin-1-yl)sulfonyl)benzoate] is > 0.85 µM; for `N#Cc1ccc(OCC2(CN[C@H]3C[C@H](O)C3)CN(S(=O)(=O)c3ccc(Cl)cc3Cl)C2)cc1F` [Compound 42, 4-((1-((2,4-Dichlorophenyl)sulfonyl)-3-((((trans)-3-hydroxycyclobutyl)amino)methyl)azetidin-3-yl)methoxy)-2-fluorobenzonitrile hydrochloride] it is 0.0013 µM; for `N#Cc1ccc(OCC2(CO)CN(S(=O)(=O)c3ccccc3Cl)C2)cc1F` [Compound 58, 4-((1-((2-Chlorophenyl)sulfonyl)-3-(hydroxymethyl)azetidin-3-yl)methoxy)-2-fluorobenzonitrile] it is 0.413 µM.
The compound `COc1cc(C#N)c(F)cc1OCC1(CO)CN(S(=O)(=O)c2ccccc2C#N)C1` [Compound 109, 4-((1-((2-Cyanophenyl)sulfonyl)-3-(hydroxymethyl)azetidin-3-yl)methoxy)-2-fluoro-5-methoxybenzonitrile] had a 50% inhibitory concentration (IC50) of 0.94 µM.
`Cc1ccc(S(=O)(=O)N2CC(CO)(COc3ccc(C#N)c(F)c3)C2)c(C)c1` [Compound 62, 4-((1-((2,4-Dimethylphenyl)sulfonyl)-3-(hydroxymethyl)azetidin-3-yl)methoxy)-2-fluorobenzonitrile] returned an IC50 of 0.472 µM.
Take `N#Cc1ccc(OCC2(CO)CN(S(=O)(=O)c3ccc(C(F)(F)F)cc3C#N)C2)cc1F` [Compound 86, 4-((1-((2-Cyano-4-(trifluoromethyl)phenyl)sulfonyl)-3-(hydroxymethyl)azetidin-3-yl)methoxy)-2-fluorobenzonitrile]: the IC50 turned out to be 0.0223 µM.
Regarding `Cc1nc(C)c(S(=O)(=O)N2CC(CO)(COc3ccc(C#N)c(F)c3)C2)s1` [Compound 65, 4-((1-((2,4-Dimethylthiazol-5-yl)sulfonyl)-3-(hydroxymethyl)azetidin-3-yl)methoxy)-2-fluorobenzonitrile], the IC50 was 5 µM.
Compound `N#Cc1ccc(OCC2(CNCC(O)CO)CN(S(=O)(=O)c3ccc(Cl)cc3Cl)C2)cc1F` (stereo not drawn) [Compound 33, 4-((1-((2,4-Dichlorophenyl)sulfonyl)-3-(((2,3-dihydroxypropyl)amino)methyl)azetidin-3-yl)methoxy)-2-fluorobenzonitrile hydrochloride] displayed an IC50 of 0.0003 µM.
The figure for `O=S(=O)(c1ccc(Cl)cc1Cl)N1CC(CO)(COc2ccncc2)C1` [Compound 91, (1-((2,4-Dichlorophenyl)sulfonyl)-3-((pyridin-4-yloxy)methyl)azetidin-3-yl)methanol] is ~5 µM.
